We go through three compounds from publication PMC5923384, “Transporter gene acquisition and innovation in the evolution of Microsporidia intracellular parasites” (Nature Communications, 2018).

Each structure is given as a SMILES string.

One assay concerns the target T1, RaNTT1 (Rozella allomycis, UniProt A0A075B2H2).
T1 construct: gene O9G_001541; PCR-amplified gene, N-terminal His10 tag, pET16b, in E. coli Rosetta2 DE3 pLysS cells
T1 sequence (A0A075B2H2 1-597): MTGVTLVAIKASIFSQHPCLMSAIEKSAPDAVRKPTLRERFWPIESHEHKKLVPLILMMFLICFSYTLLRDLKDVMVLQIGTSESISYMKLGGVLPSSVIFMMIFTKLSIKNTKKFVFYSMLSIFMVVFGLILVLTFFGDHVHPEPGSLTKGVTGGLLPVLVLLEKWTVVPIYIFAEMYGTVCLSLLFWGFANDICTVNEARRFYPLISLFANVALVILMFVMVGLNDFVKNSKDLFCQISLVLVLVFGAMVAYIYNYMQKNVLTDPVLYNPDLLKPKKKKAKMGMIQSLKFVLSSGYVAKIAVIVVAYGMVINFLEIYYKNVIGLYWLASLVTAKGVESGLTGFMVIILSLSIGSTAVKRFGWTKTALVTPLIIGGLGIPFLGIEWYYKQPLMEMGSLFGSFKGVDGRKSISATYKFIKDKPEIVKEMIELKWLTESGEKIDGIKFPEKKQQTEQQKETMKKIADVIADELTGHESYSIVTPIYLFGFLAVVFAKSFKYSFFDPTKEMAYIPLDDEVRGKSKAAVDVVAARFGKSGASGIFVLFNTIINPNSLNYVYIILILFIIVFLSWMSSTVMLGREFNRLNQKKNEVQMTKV
Kind of assay: competition with […]-ATP uptake in NTT-expressing E. coli. Format: cell-based. The following applies: 50,000x excess unlabelled competitor; PBS.

A further assay concerns AncNTTRoz/Mic. As to conditions: read-out: apparent Km; PBS; 32P-labelled ATP plus unlabelled ATP; labelled compound.
For another assay, the system named is AncNTTMic. The following applies: read-out: apparent Km; PBS; 32P-labelled ATP plus unlabelled ATP; labelled compound.
The next assay addresses T2, EcNTT1 (Encephalitozoon cuniculi, UniProt Q8SRA2).
T2 construct: gene NTT1; full-length, N-terminal His10 tag, pET16b, in E. coli Rosetta2 DE3 pLysS cells
T2 sequence (Q8SRA2 1-559): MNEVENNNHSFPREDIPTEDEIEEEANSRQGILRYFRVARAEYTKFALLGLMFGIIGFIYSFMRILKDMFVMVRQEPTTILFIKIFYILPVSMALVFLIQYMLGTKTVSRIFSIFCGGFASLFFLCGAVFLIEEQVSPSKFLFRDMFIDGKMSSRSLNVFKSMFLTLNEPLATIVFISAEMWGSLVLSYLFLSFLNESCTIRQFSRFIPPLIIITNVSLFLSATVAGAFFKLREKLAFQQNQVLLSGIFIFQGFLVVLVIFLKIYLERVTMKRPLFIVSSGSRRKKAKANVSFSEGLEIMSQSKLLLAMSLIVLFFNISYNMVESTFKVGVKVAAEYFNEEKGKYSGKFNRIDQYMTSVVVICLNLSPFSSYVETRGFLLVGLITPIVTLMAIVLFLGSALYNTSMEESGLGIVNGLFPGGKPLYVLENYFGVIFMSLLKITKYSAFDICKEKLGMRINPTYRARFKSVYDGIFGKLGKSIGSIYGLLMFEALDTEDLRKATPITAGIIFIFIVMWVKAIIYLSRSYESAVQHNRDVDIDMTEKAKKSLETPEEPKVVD
The assay is described as follows: […]-nucleotide uptake by NTT-expressing E. coli, […] min. As to conditions: PBS; labelled compound. Format: cell-based.

`Nc1ncnc2c1ncn2[C@@H]1O[C@H](COP(=O)(O)OP(=O)(O)O)[C@@H](O)[C@H]1O` [ADP]: the “residual [32P]-ATP uptake” value at RaNTT1 is “transport by R. allomycis RaNTT1 was strongly reduced only by cold ATP and ADP”. Consider `Nc1ncnc2c1ncn2[C@@H]1O[C@H](COP(=O)(O)OP(=O)(O)OP(=O)(O)O)[C@@H](O)[C@H]1O` [ATP], for which the values for the Michaelis-Menten constant (Km) with AncNTTRoz/Mic and in the assay with AncNTTMic were 0.8 ± 0.15 µM and 1.9 ± 1.35 µM, respectively.

`Nc1nc2c(ncn2[C@@H]2O[C@H](COP(=O)(O)OP(=O)(O)OP(=O)(O)O)[C@@H](O)[C@H]2O)c(=O)[nH]1` [GTP]: the “[32P]-nucleotide uptake by NTT-expressing E. coli, 30 min” value at EcNTT1 was “GTP is transported at high levels for all of the Microsporidia NTTs”.
